# Measured values taken from patent publication US20090053378A1, “Sweetener Compositions Having Enhanced Sweetness and Improved Temporal and/or Flavor Profiles” (THE COCA-COLA COMPANY, priority 2007, published 2009).
# Experiments:
# [1] = Sweetness enhancement tasting of 2-hydroxybenzoic acid derivatives in glucose solution; assay type: in vivo; design: key: NSE: No Significant Effect; conditions: 9% glucose, roughly neutral pH; 9-12 scale (9, 10.5, 12% glucose references)
# Procedure: (§1) The hydroxybenzoic acid derivatives were tasted by themselves in water at a concentration of 3 mM prior to tasting with sucrose, glucose, or fructose to determine enhancement activities. After it was determined that the hydroxybenzoic acid derivatives themselves would contribute no sweetness, they were added to solutions with; 5% fructose, 9% glucose and 6% sucrose. These solutions were adjusted to roughly neutral pH using dilute NaOH solution. The sweetness of the fructose, glucose, and sucrose solutions were evaluated both without and with the hydroxybenzoic acid derivatives using independent sweetness intensity scales for sucrose, fructose, and glucose which were scaled according to references provided for each sweetener, Thus, for sucrose, sweetness references provided were 6, 8, and 10% sucrose and the sweetness intensities of unknown samples were scaled on this 6-10 scale. For fructose, 5, 7.5, and 9% fructose references were provided and the sweetness intensities of unknown samples were scaled on this 5-9 scale. For glucose, 9, 10.5, and 12% glucose references were provided and the sweetness intensities of unknown samples were scaled on this 9-12 scale.
# [2] = Sweetness enhancement tasting of 2-hydroxybenzoic acid derivatives in sucrose solution; assay type: in vivo; design: key: NSE: No Significant Effect; conditions: 6% sucrose, roughly neutral pH; 6-10 scale (6, 8, 10% sucrose references)
# Procedure: as §1
# [3] = Sweetness enhancement tasting of 2-hydroxybenzoic acid derivatives in fructose solution; assay type: in vivo; design: key: NSE: No Significant Effect; conditions: 5% fructose, roughly neutral pH; 5-9 scale (5, 7.5, 9% fructose references)
# Procedure: as §1
# [4] = Rate of dissolution of rebaudioside A forms in water; assay type: physicochemical
Compound,"Glucose sweetness rating, without => with the hydroxybenzoic acid derivative [1]","Sucrose sweetness rating, without => with the hydroxybenzoic acid derivative [2]","Fructose sweetness rating, without => with the hydroxybenzoic acid derivative [3]",Rate of dissolution in H2O at 25° C. ([4]; in 60 minutes),Rate of dissolution in H2O at 25° C. ([4]; in 5 minutes)
COc1cccc(C(=O)O)c1O [compound 1],NSE,NSE,NSE,,
COc1ccc(C(=O)O)c(O)c1 [compound 2],NSE,NSE,NSE,,
COc1ccc(O)c(C(=O)O)c1 [compound 3],NSE,NSE,NSE,,
COc1cccc(O)c1C(=O)O [compound 4],NSE,NSE,NSE,,
O=C(O)c1c(O)cccc1O [compound 8],,NSE,,,
Cc1ccc(C(=O)O)c(O)c1 [compound 11],NSE,NSE,NSE,,
Cc1ccc(O)c(C(=O)O)c1 [compound 12],NSE,NSE,NSE,,
CCOc1ccc(C(=O)O)c(O)c1 [compound 14],NSE,NSE,NSE,,
O=C(O)c1cccc([N+](=O)[O-])c1O [compound 18],NSE,NSE,NSE,,
O=C(O)c1cc([N+](=O)[O-])ccc1O [compound 20],,NSE,NSE,,
O=C(O)c1cc(F)ccc1O [compound 23],NSE,NSE,NSE,,
O=C(O)c1c(O)cccc1F [compound 24],NSE,NSE,NSE,,
Cc1c(O)ccc(C(=O)O)c1O [compound 25],NSE,NSE,NSE,,
O=C(O)c1ccc(O)c(O)c1O [compound 26],NSE,NSE,NSE,,
Nc1cc(C(=O)O)c(O)c(S(=O)(=O)O)c1 [compound 27],NSE,NSE,NSE,,
Nc1cccc(C(=O)O)c1O [compound 28],NSE,NSE,NSE,,
Nc1ccc(C(=O)O)c(O)c1 [compound 29],,,NSE,,

Compound,"Glucose sweetness rating, without => with the hydroxybenzoic acid derivative [1]","Sucrose sweetness rating, without => with the hydroxybenzoic acid derivative [2]","Fructose sweetness rating, without => with the hydroxybenzoic acid derivative [3]",Rate of dissolution in H2O at 25° C. ([4]; in 60 minutes),Rate of dissolution in H2O at 25° C. ([4]; in 5 minutes)
Nc1ccc(O)c(C(=O)O)c1 [compound 30],NSE,NSE,NSE,,
Cc1cc(C)c(O)c(C(=O)O)c1 [compound 31],NSE,NSE,NSE,,
O=Cc1ccc(O)c(C(=O)O)c1 [compound 32],NSE,NSE,NSE,,
O=C(O)c1ccc(O)c(C(=O)O)c1 [compound 33],NSE,NSE,NSE,,
CCCOc1ccc(C(=O)O)c(O)c1 [compound 34],NSE,NSE,NSE,,
O=C(O)c1ccc(OCc2ccccc2)cc1O [compound 35],NSE,NSE,NSE,,
O=C(O)c1ccc(OCCCc2ccccc2)cc1O [compound 36],NSE,NSE,NSE,,
COC(=O)COc1ccc(C(=O)O)c(O)c1 [compound 37],NSE,NSE,NSE,,
O=C(O)COc1ccc(C(=O)O)c(O)c1 [compound 38],NSE,NSE,NSE,,
O=C(O)c1ccc(OCCO)cc1O [compound 39],NSE,NSE,NSE,,
O=C(O)c1ccc(OCCCCO)cc1O [compound 40],NSE,NSE,NSE,,
NC(=O)COc1ccc(C(=O)O)c(O)c1 [compound 41],NSE,NSE,NSE,,
rebaudioside A [Form 1],,,,Very low (<0.2%,
rebaudioside A [Form 2],,,,,Intermediate (<30%
rebaudioside A [Form 3],,,,,High (>30%
rebaudioside A [Form 4],,,,,High (>35.0%
